The numbers were not newly measured in patent US20170319562A1, “Compositions and Methods for Extended Therapy with Aminopyridines” (Acorda Therapeutics, Inc., priority 2009, published 2017), which cites them from elsewhere.

The subject of data set [1] is chronically injured spinal cord of guinea pigs. As to conditions: cited from earlier work.
The conditions of data set [2]: two formulations of IR tablets; cited from earlier work.

Regarding `Nc1ccncc1` [4-aminopyridine], the most effective concentration result in data set [1] is on record as “about 10 μM”. For the same compound, the absolute bioavailability in data set [2] is on record as 95%.
